The text below walks through data of patent publication US8933224B2, “Triazine derivatives” (Pfizer Inc., priority 2013, dated 2015).

A value given as a limit tells only on which side of the number the result lay.

Sequence of rat PDE10 enzyme (Q9QYJ6 24-794): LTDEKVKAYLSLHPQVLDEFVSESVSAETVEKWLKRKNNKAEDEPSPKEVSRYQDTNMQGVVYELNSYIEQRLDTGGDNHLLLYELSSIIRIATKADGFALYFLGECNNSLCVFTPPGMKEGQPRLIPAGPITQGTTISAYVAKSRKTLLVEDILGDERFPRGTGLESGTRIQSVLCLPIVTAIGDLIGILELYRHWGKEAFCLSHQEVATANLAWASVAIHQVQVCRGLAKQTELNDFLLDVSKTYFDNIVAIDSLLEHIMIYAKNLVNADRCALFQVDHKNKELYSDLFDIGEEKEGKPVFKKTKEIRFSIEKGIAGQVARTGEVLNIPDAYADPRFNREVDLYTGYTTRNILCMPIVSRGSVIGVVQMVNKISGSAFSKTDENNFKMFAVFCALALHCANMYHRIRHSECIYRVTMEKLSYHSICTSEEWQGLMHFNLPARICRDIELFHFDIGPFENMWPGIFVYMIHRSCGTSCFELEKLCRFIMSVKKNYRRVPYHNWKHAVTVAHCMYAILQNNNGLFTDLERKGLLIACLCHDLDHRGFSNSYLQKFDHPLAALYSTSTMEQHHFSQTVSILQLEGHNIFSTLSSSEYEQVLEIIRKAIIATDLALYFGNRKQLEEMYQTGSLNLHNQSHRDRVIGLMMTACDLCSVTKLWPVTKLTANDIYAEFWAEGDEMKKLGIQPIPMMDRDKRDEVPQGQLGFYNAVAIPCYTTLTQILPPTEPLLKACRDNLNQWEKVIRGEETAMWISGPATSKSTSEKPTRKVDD

The target in the test is rat PDE10 enzyme (Rattus norvegicus (Rat), UniProt Q9QYJ6). Description: PDE10 scintillation proximity assay (SPA), inhibition of rat PDE10 enzyme activity. The class given is biochemical. The conditions noted are these: geometric mean of 2-4 determinations unless otherwise indicated (b: ≧5 determinations; c: single determination). The procedure: PDE10 activity was measured using a scintillation assay (SPA-based method) similar to that previously described by Seeger, T. F. et al., Brain Research 985 (2003) 113-126. The compounds' relative activity as PDE10 inhibitors was investigated by assaying a fixed amount of enzyme in the presence of the test compound and low substrate concentration (cAMP) such that an IC50 could be determined. […] The assay is performed in a 384-well format with 50 μL assay buffer (50 mM TRIS pH 7.5; 1.3 mM MgCl2; 0.01% Brij) containing enough PDE10 to convert ˜20% of 20 nM ^3H-cAMP, and a range of inhibitors. Reactions are incubated for 30 minutes at 25° C. The addition of 20 μL of 8 mg/ml yttrium silicate SPA beads (PerkinElmer) stops the reaction. The plates are sealed (TopSeal, PerkinElmer) and the beads are allowed to settle for 8 hrs, after which they are read on the Trilux Microbeta overnight. ^1Rat enzyme preparation:^2Human enzyme preparation:
The recombinant Bacmid was isolated and used to transfect sf9 insect cells to generate a viral stock. To generate cell paste for purification, sf21 cells were infected with the virus stock and cells were harvested 72 hours after infection as described in Seeger, T. F. et al., Brain Research 985 (2003) 113-126. Insect cell paste was lysed and after centrifugation, the supernatant was chromatographed on Ni-NTA agarose (Qiagen) followed by Mono Q (GE Healthcare Life Sciences) as described in Seeger, T. F. et al., Brain Research 985 (2003) 113-126.
`Cc1nc(-c2ccccc2F)c2c(N3CCc4ncnc(O)c4C3)ncnn12` [Example 172, 6-[5-(2-fluorophenyl)-7-methylimidazo[5,1-f][1,2,4]triazin-4-yl]-5,6,7,8-tetrahydropyrido[4,3-d]pyrimidin-4-ol] registered an IC50 of 11.3 nM.
The figure for `Cc1nc2c(s1)CN(c1ncnn3c(C)nc([C@H]4CCCO4)c13)CC2` [Example 81] is 9.73 nM; for `Cc1nc2c(c(OC(F)F)n1)CN(c1ncnn3c(C)nc([C@@H]4CCOC4)c13)CC2` [Example 36, 4-(difluoromethoxy)-2-methyl-6-{7-methyl-5-[(3S)-tetrahydrofuran-3-yl]imidazo[5,1-f][1,2,4]triazin-4-yl}-5,6,7,8-tetrahydropyrido[4,3-d]pyrimidine] it is 0.44 nM; for `Cc1nc(CC(C)C)c2c(N3CCc4nc(C5CC5)ncc4C3)ncnn12` [Example 55, 2-cyclopropyl-6-(5-isobutyl-7-methylimidazo[5,1-f][1,2,4]triazin-4-yl)-5,6,7,8-tetrahydropyrido[4,3-d]pyrimidine] it is 2.19 nM.
`Cc1nc([C@@H]2CCOC2)c2c(N3CCc4nc(C5CC5)ncc4C3)ncnn12` [Example 16, 2-cyclopropyl-6-{7-methyl-5-[(3S)-tetrahydrofuran-3-yl]imidazo{5,1-f][1,2,4]triazin-4-yl}-5,6,7,8-tetrahydropyrido[4,3-d]pyrimidine]: the IC50 was 6.55 nM.
The figure for `CCn1c(C)nc2c(c1=O)CN(c1ncnn3c(C)nc([C@@H]4CCOC4)c13)CC2` [Example 129, 3-ethyl-2-methyl-6-{7-methyl-5-[(3S)-tetrahydrofuran-3-yl]imidazo[5,1-f][1,2,4]triazin-4-yl}-5,6,7,8-tetrahydropyrido[4,3-d]pyrimidin-4(3H)-one] is 0.0998 nM; for `Cc1nn(C)c2c1CN(c1ncnn3c(C)nc(C4CCOCC4)c13)CC2` [Example 103, 4-(1,3-dimethyl-1,4,6,7-tetrahydro-5H-pyrazolo[4,3-c]pyridin-5-yl)-7-methyl-5-(tetrahydro-2H-pyran-4-yl)imidazo[5,1-f][1,2,4]triazine] it is 5.13 nM; for `COc1ccc2c(c1)CCN(c1ncnn3c(C)nc([C@H]4CCOC4)c13)C2` [Example 87, 6-methoxy-2-{7-methyl-5-[(3R)-tetrahydrofuran-3-yl]imidazo[5,1-f][1,2,4]triazin-4-yl}-1,2,3,4-tetrahydroisoquinoline] it is 1.26 nM.
The value for `Cc1nc(-c2ccccc2F)c2c(N3CCc4nc(N(C)C)ccc4C3)ncnn12` [Example 67, 6-[5-(2-fluorophenyl)-7-methylimidazo[5,1-f][1,2,4]triazin-4-yl]-N,N-dimethyl-5,6,7,8-tetrahydro-1,6-naphthyridin-2-amine] was 0.325 nM; that for `CCc1nn(C)c2c1CN(c1ncnn3c(C)nc(CC(C)C)c13)CC2` [Example 48, 4-(3-ethyl-1-methyl-1,4,6,7-tetrahydro-5H-pyrazolo[4,3-c]pyridin-5-yl)-5-isobutyl-7-methylimidazo[5,1-f][1,2,4]triazine] was below 1 nM.
`Cc1nc(-c2ccccc2F)c2c(N3CCc4nc(C5CC5)nc(OC(F)F)c4C3)ncnn12` [Example 140, 2-cyclopropyl-4-(difluoromethoxy)-6-[5-(2-fluorophenyl)-7-methylimidazo[5,1-f][1,2,4]triazin-4-yl]-5,6,7,8-tetrahydropyrido[4,3-d]pyrimidine] displayed an IC50 of 1.5 nM.
As to `CCn1c(C2CC2)nc2c(c1=O)CN(c1ncnn3c(C)nc([C@@H]4CCOC4)c13)CC2` [Example 150, 2-cyclopropyl-3-ethyl-6-{7-methyl-5-[(3S)-tetrahydrofuran-3-yl]imidazo[5,1-f][1,2,4]triazin-4-yl}-5,6,7,8-tetrahydropyrido[4,3-d]pyrimidin-4(3H)-one], inhibition was half-maximal at 0.0697 nM (IC50).
The figure for `Cc1nc([C@H]2CCOC2)c2c(N3CCc4cc(Cl)c(Cl)cc4C3)ncnn12` [Example 51, 6,7-dichloro-2-{7-methyl-5-[(3R)-tetrahydrofuran-3-yl]imidazo[5,1-f][1,2,4]triazin-4-yl}-1,2,3,4-tetrahydroisoquinoline] is 13.5 nM; for `Cc1nc(C2CCOCC2)c2c(N3CCn4ncc(C(F)(F)F)c4C3)ncnn12` [Example 102, 7-methyl-5-(tetrahydro-2H-pyran-4-yl)-4-[3-(trifluoromethyl)-6,7-dihydropyrazolo[1,5-a]pyrazin-5(4H)-yl]imidazo[5,1-f][1,2,4]triazine] it is 3.94 nM.
`Cc1nc([C@H]2CCOC2)c2c(N3CCc4ncncc4C3)ncnn12` [Example 63, 6-{7-methyl-5-[(3R)-tetrahydrofuran-3-yl]imidazo[5,1-f][1,2,4]triazin-4-yl}-5,6,7,8-tetrahydropyrido[4,3-d]pyrimidine]: the IC50 came out at 133 nM.
The figure for `Cc1ccc2c(n1)CN(c1ncnn3c(C)nc(-c4ccccc4F)c13)CC2` [Example 73, 7-[5-(2-fluorophenyl)-7-methylimidazo[5,1-f][1,2,4]triazin-4-yl]-2-methyl-5,6,7,8-tetrahydro-1,7-naphthyridine] is 6.81 nM; for `Cc1nc2c(o1)CN(c1ncnn3c(C)nc([C@H]4CCOC4)c13)CC2` [Example 76, 7-methyl-4-(2-methyl-6,7-dihydro[1,3]oxazolo[5,4-c]pyridin-5(4H)-yl)-5-[(3R)-tetrahydrofuran-3-yl]imidazo[5,1-f][1,2,4]triazine] it is 22.9 nM.
The figure for `Cc1nc([C@@H]2CCOC2)c2c(N3CCc4nc(C5CC5)nc(C(F)(F)F)c4C3)ncnn12` [Example 89, 2-cyclopropyl-6-{7-methyl-5-[(3S)-tetrahydrofuran-3-yl]imidazo[5,1-f][1,2,4]triazin-4-yl}-4-(trifluoromethyl)-5,6,7,8-tetrahydropyrido[4,3-d]pyrimidine] is 0.561 nM; for `Cc1nc2c(c(=O)n1C)CN(c1ncnn3c(C)nc(-c4ccccc4F)c13)CC2` [Example 124, 6-[5-(2-fluorophenyl)-7-methylimidazo[5,1-f][1,2,4]triazin-4-yl]-2,3-dimethyl-5,6,7,8-tetrahydropyrido[4,3-d]pyrimidin-4(3H)-one] it is 2.71 nM.
Consider `Cc1nc(CC(C)C)c2c(N3CCc4nc(C5CC5)oc4C3)ncnn12` [Example 54, 4-(2-cyclopropyl-6,7-dihydro[1,3]oxazolo[5,4-c]pyridin-5(4H)-yl)-5-isobutyl-7-methylimidazo[5,1-f][1,2,4]triazine], for which half-maximal inhibition (IC50) required 4.52 nM.
In the case of `Cc1noc2c1CN(c1ncnn3c(C)nc([C@@H]4CCOC4)c13)CC2` [Example 34, 7-methyl-4-(3-methyl-6,7-dihydro[1,2]oxazolo[4,5-c]pyridin-5(4H)-yl)-5-[(3S)-tetrahydrofuran-3-yl]imidazo[5,1-f][1,2,4]triazine], the IC50 came out at 16.5 nM.
The value for `Cc1nc(-c2ccccc2F)c2c(N3CCc4nc(C5CC5)oc4C3)ncnn12` [Example 53, 4-(2-cyclopropyl-6,7-dihydro[1,3]oxazolo[5,4-c]pyridin-5(4H)-yl)-5-(2-fluorophenyl)-7-methylimidazo[5,1-f][1,2,4]triazine] was 1.79 nM; that for `Cc1c2c(nn1C)CCN(c1ncnn3c(C)nc([C@@H]4CCOC4)c13)C2` [Example 101, 4-(2,3-dimethyl-2,4,6,7-tetrahydro-5H-pyrazolo[4,3-c]pyridin-5-yl)-7-methyl-5-[(3S)-tetrahydrofuran-3-yl]imidazo[5,1-f][1,2,4]triazine] was 0.283 nM.
